Source: US9266954B2, “Methods for modulating D1-D2 dopamine receptor coupling and function” (Centre for Addiction and Mental Health, priority 2008, dated 2016)
Ends that are not written are not given here.

Columns and labels:
D1 receptors = biological target: T1, D1 receptors (Rattus norvegicus, UniProt P18901); experiment: GST-fusion protein affinity pull-down of D1 receptor from solubilized rat striatum; assay type: binding; settings: FIG. 1C-1E
T1 construct: D1 receptor was specifically pulled down by GST-D2IL3-L in detergent extracts of rat striatum; from tissue; host or cells: rat striatum, detergent-solubilized
Source text: (§1) To confirm previous reports of a D1-D2 receptor complex we used rat striata in co-immunoprecipitation (co-IP) experiments. […] In an attempt to define the structural basis for the observed D1-D2 coupling, we carried out affinity purification using GST (glutathione-S-transferase)-fusion proteins encoding the D1CT and the third intracellular loop (D1IL3), since both D1CT: A332-T446 and D1IL3: R219-K272 contain putative consensus sequences for receptor phosphorylation, desensitization and potential binding sites for various proteins important for signalling (e.g. G proteins, NMDA receptor NR1, NR2A subunits)^81-82. […] To locate the interacting site on D2R, GST-fusion proteins encoding IL3 from both the D2 short (D2S) and D2 Long (D2L) (GST-D2IL3-L: K211-Q373, GST-D2IL3-S:K211-[…]) were used in affinity purification assays. […] Since the D2L and D2S are differentiated by the additional 29 amino-acid within the third intracellular loop, the fact that only D2L but not D2S interacts with D1R made us suspect that this specific 29 amino-acid may contain the D1-D2 interacting site.

D1 tail = biological target: T2, D1 tail (Homo sapiens, UniProt P21728); experiment: in vitro binding assay with S^35-D1 tail probe; settings: FIG. 1F
T2 construct: D1CT A332-T446
T2 sequence (P21728 332-446): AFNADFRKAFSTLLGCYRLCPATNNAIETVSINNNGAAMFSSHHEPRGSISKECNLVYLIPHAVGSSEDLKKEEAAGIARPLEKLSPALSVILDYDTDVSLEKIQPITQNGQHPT
Source text: as §1

[1] = biological target: T3, HEK-293T cells co-expressing D1 and D2 receptors (Homo sapiens, UniProt P14416+P21728); experiment: Fluo-4AM fluorescence measurement of intracellular Ca^2+ in HEK-293T cells co-expressing D1 and D2 receptors; assay type: cell-based; settings: pretreatment 10 μM
T3 construct: expressed in transfected cells; host or cells: HEK-293T
Source text: Fluorescence values were monitored using a PerkinElmer multiwell plated fluorometer, collected at 3-s intervals for 150 s. (A.F.U.: arbitrary fluorescence units).
To investigate the functional implication of the D1-D2 coupling, we examined the ability of this complex to promote Gq/11 signaling as indexed by changes in intracellular Ca^2+ levels^83-85.

D1-D2 interaction = biological target: T4, D1-D2 interaction (Rattus norvegicus, UniProt P18901); experiment: competitive co-immunoprecipitation of D1 receptor with D2 receptor in rat striatum; assay type: binding; settings: preincubation, FIG. 1G
T4 construct: from tissue; host or cells: rat striatum
Source text: The ability of D1 receptor to co-immunoprecipitate with D2 receptor is inhibited by the addition of GST-D2IL3-29-2 in a concentration dependent manner;
as §1

D2 receptors = settings: rat, in vivo
D1R = experiment: Western blot of D1R levels in striata of chronically treated rats; assay type: in vivo; settings: rat striata; 10 mg/kg/day subcutaneously for 14 days
D2R = experiment: Western blot of D2R levels in striata of chronically treated rats; assay type: in vivo; settings: rat striata; 10 mg/kg/day subcutaneously for 14 days
D1-D2 coupling = settings: rat, in vivo, sc, 10 mg/kg/day

T1 sequence (P18901 whole entry, the tested form may be a part): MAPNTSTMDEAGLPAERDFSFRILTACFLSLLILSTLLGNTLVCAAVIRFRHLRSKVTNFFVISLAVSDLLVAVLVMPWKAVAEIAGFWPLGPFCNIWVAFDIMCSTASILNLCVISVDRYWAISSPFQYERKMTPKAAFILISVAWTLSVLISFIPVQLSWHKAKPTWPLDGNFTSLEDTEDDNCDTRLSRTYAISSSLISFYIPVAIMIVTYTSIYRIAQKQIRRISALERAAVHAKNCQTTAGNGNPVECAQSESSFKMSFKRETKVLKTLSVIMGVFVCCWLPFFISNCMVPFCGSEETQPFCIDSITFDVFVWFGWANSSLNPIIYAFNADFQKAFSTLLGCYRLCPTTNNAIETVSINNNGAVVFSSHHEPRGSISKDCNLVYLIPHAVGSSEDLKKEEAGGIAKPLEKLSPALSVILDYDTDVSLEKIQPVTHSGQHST
T3 sequence (P21728 whole entry): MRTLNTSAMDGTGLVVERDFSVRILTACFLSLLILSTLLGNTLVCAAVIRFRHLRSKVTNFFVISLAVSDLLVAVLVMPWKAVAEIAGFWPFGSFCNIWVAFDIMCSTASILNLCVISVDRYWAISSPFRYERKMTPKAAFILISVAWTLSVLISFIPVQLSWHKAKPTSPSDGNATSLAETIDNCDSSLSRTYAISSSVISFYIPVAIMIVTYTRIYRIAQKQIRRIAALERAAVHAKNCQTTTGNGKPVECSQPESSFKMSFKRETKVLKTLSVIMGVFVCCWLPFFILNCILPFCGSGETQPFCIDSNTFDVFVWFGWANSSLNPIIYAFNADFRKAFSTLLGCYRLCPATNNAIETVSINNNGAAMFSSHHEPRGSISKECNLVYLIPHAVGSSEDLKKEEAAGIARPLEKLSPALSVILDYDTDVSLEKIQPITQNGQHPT
T3 sequence (P14416 whole entry): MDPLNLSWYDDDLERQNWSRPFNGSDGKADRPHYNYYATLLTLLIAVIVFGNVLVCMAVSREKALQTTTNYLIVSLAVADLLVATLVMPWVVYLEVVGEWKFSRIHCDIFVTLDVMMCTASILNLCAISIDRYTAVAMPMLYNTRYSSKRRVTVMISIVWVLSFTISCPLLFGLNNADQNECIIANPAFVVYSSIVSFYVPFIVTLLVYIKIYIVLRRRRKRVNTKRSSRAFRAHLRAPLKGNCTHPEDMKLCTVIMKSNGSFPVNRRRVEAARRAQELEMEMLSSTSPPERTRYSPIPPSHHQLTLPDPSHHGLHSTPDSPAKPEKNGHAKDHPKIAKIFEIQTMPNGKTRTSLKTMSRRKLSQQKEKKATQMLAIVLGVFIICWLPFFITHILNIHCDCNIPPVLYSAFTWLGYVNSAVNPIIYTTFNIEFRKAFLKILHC
T4 sequence (P18901 whole entry): as the sequence (P18901 whole entry, the tested form may be a part) above

Row | Compound | pull-down of D1 receptors (D1 receptors) | binding of S^35-D1 tail probe (D1 tail) | block of the Ca^2+ increase induced by co-activation with 10 μM SKF81297 and 10 μM quinpirole [1] | further results
1 | GST-D2LIL3-29-1: GST-fusion protein encoding D2LIL3-29-1: G242-V255 (GNCTHPEDMKLCTV; cysteine pairing not given here; also: GST fusion protein) | not | not |  | 
2 | CCN1CCC[C@H]1CNC(=O)c1c(O)c(Cl)cc(Cl)c1OC [raclopride] |  |  | blocked | 
3 | GST-D2LIL3-29-2: GST-fusion protein encoding D2LIL3-29-2: I256-V270 (IMKSNGSFPVNRRRV; also: GST fusion protein) | can successfully pull-down D1R | specifically bound |  | inhibition of D1-D2 interaction as indexed by co-immunoprecipitation (D1-D2 interaction): inhibits the D1-D2 interaction as indexed by the co-immunoprecipitation in a concentration dependent manner
4 | O=C(CCCN1CCC(O)(c2ccc(Cl)cc2)CC1)c1ccc(F)cc1 [haloperidol] |  |  |  | direct immunoprecipitated D2 receptors (D2 receptors): remain unchanged
5 | COc1ccc2c(c1)CC[C@@H]1[C@@H]2CC[C@]2(C)[C@@H](NCCCCCCN3C(=O)C=CC3=O)CC[C@@H]12 [U73122] |  |  | inhibited the increase in Ca^2+ levels | 
6 | CN(C)CCCN1c2ccccc2CCc2ccccc21 [imipramine] |  |  |  | D1R levels (Western blot) vs control rats (D1R): no significant change; D2R levels (Western blot) vs control rats (D2R): no significant change; D1-D2 coupling (co-immunoprecipitation) (D1-D2 coupling): decrease in D1-D2 coupling
